This note sets out measurements from patent US4032659A (priority 1975, dated 1977).

“And” between values parts separate entries of the source, which are not always exact repeats. Equal values may be shown once. Where a name gives a salt, the structure may show the parent alone. Read-outs that look alike come from different tables or passages of the source.

Test [1] relates to Herpes virus. Description: Herpes virus in eggs (chick embryo survival). The following applies: all doses. The test is classed as in vivo, chicken eggs.
Test [2] relates to Herpes virus. In kind it is in vivo, mouse.
In another test the test system is virus infections. Description: Antiviral screening program, several viruses. The following applies: mouse, in vivo.
The subject of test [3] is Influenza Ann Arbor virus. Description: Chemoprophylaxis of Influenza Ann Arbor (A1) virus infection in mice. The test is classed as in vivo, mouse.
The test system of another test is Influenza PR 8 virus. Description: Chemoprophylaxis of Influenza PR 8 virus infection in mice. In kind it is in vivo, mouse. The following applies: oral.
For test [4], the system named is Influenza B Massachusetts virus. Put plainly: Chemoprophylaxis of Influenza B Massachusetts virus infection in mice. In kind it is in vivo, mouse. The following applies: oral. As to the method:
The activity of four compounds on Influenza B Mass. was tested in mice.
A portion of a commercially available sample of amantadine was recrystallized from isopropanol. The activity of the material against Influenza B Mass. was tested for the sample as obtained, the recrystallized portion, and the mother liquor obtained from recrystallizing the portion.

Setting [5] is: subcutaneous, total dose 500 μg.
Where [6] appears, read: subcutaneous, total dose .00005 μg.
Where [7] appears, read: subcutaneous, total dose .0005 μg.
Where [8] appears, read: subcutaneous, total dose .005 μg.
The mark [9] stands for this setting: subcutaneous, total dose .05 μg.

On to `NN` [hydrazine], for which the “No. Living Longer Than Controls, total” value in the test on Herpes virus [1] is listed as 3. The “No. animals surviving after 7 days” value in the test on Herpes virus [2] (oral, total dose 5 μg) worked out at 7; in the test with Herpes virus [2] (oral, total dose .0005 μg), 5; with Herpes virus [2] (oral, total dose .005 μg) it was 6; with Herpes virus [2] (oral, total dose .05 μg) it was 5; in the test on Herpes virus [2] (oral, total dose .5 μg), 6. Moreover, the “No. animals surviving when 19/20 controls are dead” value is listed as 5 in the test on Herpes virus [2] (oral, total dose .0005 μg); 3 with Herpes virus [2] (oral, total dose .005 μg); 1 in the test on Herpes virus [2] (oral, total dose .5 μg).

For the compound `NNc1nncc2ccccc12` [Hydralazine, hydralazine, reference compound], the “activity (in words)” value in the test on virus infections is on record as “effective against Herpes virus”.

With `NN.O=S(=O)(O)O` [Hydrazine Sulfate, hydrazine sulfate], the Survivors is on record as 2 with Herpes virus [2] (oral, total dose 5 μg); 3 in the test on Herpes virus [2] (oral, total dose .0005 μg); 4 with Herpes virus [2] (oral, total dose .005 μg); 0 in the test with Herpes virus [2] (oral, total dose .05 μg); 1 in the test on Herpes virus [2] (oral, total dose .5 μg).

For the compound `NN` [hydrazine, hydrate], the “activity (in words)” value with virus infections was “active on Influenza PR 8, Vaccinia in the mouse tail, Herpes in eggs, Herpes in mice, and Influenza Ann Arbor”. In addition, the “No. animals surviving after 5 days” value in test [3] (oral, total dose 5 μg) was 4; in test [3] (oral, total dose 50 μg), 4; in test [3] (oral, total dose 500 μg) it was 5; in test [3] (oral, total dose .00005 μg) it was 6; in test [3] (oral, total dose .0005 μg) it was 6; in test [3] (oral, total dose .005 μg), 3. In addition, the “No. animals surviving after 5 days” value was found to be 3 in test [3] (oral, total dose .05 μg); 6 in test [3] (oral, total dose .5 μg); 6 in test [3] (subcutaneous, total dose 5 μg); 4 in test [3] (subcutaneous, total dose 50 μg); 3 in test [3] (setting [5]); 1 in test [3] (setting [6]). Also, the “No. animals surviving after 5 days” value in test [3] (setting [7]) is on record as 7; in test [3] (setting [8]), 4; in test [3] (setting [9]) it was 6; in test [3] (subcutaneous, total dose .5 μg) it was 5. Also, the Survivors stood at 0 in test [3] (oral, total dose 5 μg); 0 in test [3] (oral, total dose 50 μg); 0 in test [3] (oral, total dose 500 μg); 0 in test [3] (oral, total dose .00005 μg); 0 in test [3] (oral, total dose .0005 μg); 0 in test [3] (oral, total dose .005 μg). The Survivors in test [3] (oral, total dose .05 μg) stood at 1; in test [3] (oral, total dose .5 μg), 0; in test [3] (subcutaneous, total dose 5 μg, hydrate), 3; in test [3] (setting [5]) it was 0; in test [3] (setting [6]), 0; in the test on Influenza PR 8 virus (total dose 5 μg) it was 0. The Survivors in the test with Influenza PR 8 virus (total dose 50 μg) is on record as 0; with Influenza PR 8 virus (total dose .0005 μg, hydrate), 1; in the test with Influenza PR 8 virus (total dose .5 μg) it was 1. For the same compound, the “No. animals surviving after 7 days” value in test [3] (subcutaneous, total dose 5 μg) was 6; in test [3] (subcutaneous, total dose 50 μg), 7; in test [3] (setting [5]), 6; in test [3] (setting [6]), 1; in test [3] (setting [7]), 5; in test [3] (setting [8]) it was 3. For the same compound, the “No. animals surviving after 7 days” value is listed as 4 in test [3] (setting [9]); 7 in test [3] (subcutaneous, total dose .5 μg); 4 with Influenza PR 8 virus (total dose .000005 μg); 0 in the test with Influenza PR 8 virus (total dose .00005 μg); 5 with Influenza PR 8 virus (total dose .005 μg). For the same compound, the “No. animals surviving after 10 days” value in the test on Influenza PR 8 virus (total dose 5 μg) worked out at 1; in the test on Influenza PR 8 virus (total dose 50 μg), 1; in the test with Influenza PR 8 virus (total dose .0005 μg) it was 1; in the test on Influenza PR 8 virus (total dose .005 μg) it was 3; in the test on Influenza PR 8 virus (total dose .05 μg) it was 0; in the test on Influenza PR 8 virus (total dose .5 μg), 1. The “No. animals surviving when 18/20 of controls are dead” value came out at 4 in the test with Influenza PR 8 virus (total dose .00005 μg); 3 in the test on Influenza PR 8 virus (total dose .0005 μg); 1 in the test on Influenza PR 8 virus (total dose .005 μg); 1 in the test with Influenza PR 8 virus (total dose .05 μg); 1 with Influenza PR 8 virus (total dose .5 μg).

As for `NNC(=S)NC12CC3CC(CC(C3)C1)C2`, the “No. animals surviving when 18/20 of controls are dead” value in the test with Herpes virus [2] (oral, total dose 4pg) stood at 1; with Herpes virus [2] (oral, total dose 40pg), 1; with Herpes virus [2] (oral, total dose 400pg), 3; with Herpes virus [2] (oral, total dose 4ng), 2; with Herpes virus [2] (oral, total dose 40ng) it was 2; in the test on Herpes virus [2] (oral, total dose 400ng), 3. Moreover, the Survivors in the test on Herpes virus [2] (oral, total dose 4pg) turned out to be 1; in the test with Herpes virus [2] (oral, total dose 40pg) it was 1; with Herpes virus [2] (oral, total dose 400pg) it was 3; with Herpes virus [2] (oral, total dose 4ng) it was 2; in the test with Herpes virus [2] (oral, total dose 40ng), 2; in the test on Herpes virus [2] (oral, total dose 400ng), 3.

As to N-hydroxyphthalamide, the “activity (in words)” value in the test with virus infections was “active in the practice of this invention”.

As to `NNC(N)=O` [semicarbazide, hydrochloride], the “activity (in words)” value with virus infections is “effective against Influenza PR 8 virus, Vaccinia virus in the mouse tail, Herpes virus in eggs, Herpes virus in mice, Neurovaccinia, and Influenza Ann Arbor virus”. For the same compound, the “No. animals surviving when 19/20 controls are dead” value in the test on Herpes virus [2] (oral, total dose 5 μg) was 4; in the test on Herpes virus [2] (oral, total dose .05 μg), 4.

Consider `NNC(=O)c1ccncc1` [Isoniazid, isoniazid, reference compound], for which the “activity (in words)” value in the test with virus infections is “active against Influenza PR 8, Influenza Ann Arbor, Influenza B Mass., and Herpes virus”. Moreover, the Survivors was 2 in test [3] (oral, total dose .005 μg); 2 and 1 in test [3] (oral, total dose .05 μg); 2 and 1 in test [3] (oral, total dose .5 μg); 2 with Influenza PR 8 virus (total dose 5 μg); 0 with Influenza PR 8 virus (total dose .0000005 μg); 0 in the test on Influenza PR 8 virus (total dose .000005 μg). For the same compound, the Survivors in the test with Influenza PR 8 virus (total dose .00005 μg) is 0; in the test on Influenza PR 8 virus (total dose .0005 μg), 0; with Influenza PR 8 virus (total dose .005 μg), 1; in the test with Influenza PR 8 virus (total dose .05 μg), 1; in the test with Influenza PR 8 virus (total dose .5 μg), 1; in test [4] (total dose .000005 μg), 0. Moreover, the Survivors in test [4] (total dose .00005 μg) was found to be 0; in test [4] (total dose .0005 μg) it was 0; in test [4] (total dose .005 μg) it was 0; in test [4] (total dose .05 μg) it was 0; in test [4] (total dose .5 μg), 0; in the test on Herpes virus [2] (oral, total dose .0000005 μg) it was 1. The same compound yielded a Survivors in the test with Herpes virus [2] (oral, total dose .05 μg) of 1. Further, the “No. animals surviving after 7 days” value in the test on Influenza PR 8 virus (total dose 5 μg) came out at 5; in the test with Influenza PR 8 virus (total dose .0000005 μg) it was 1; in the test with Influenza PR 8 virus (total dose .000005 μg), 2; in the test with Influenza PR 8 virus (total dose .00005 μg), 0; with Influenza PR 8 virus (total dose .0005 μg), 0; in the test on Influenza PR 8 virus (total dose .005 μg), 1. Further, the “No. animals surviving after 7 days” value in the test with Influenza PR 8 virus (total dose .05 μg) and in the test on Influenza PR 8 virus (total dose .5 μg) was 2 throughout. The “No. animals surviving after 5 days” value in test [4] (total dose .000005 μg) was 3; in test [4] (total dose .00005 μg) it was 2; in test [4] (total dose .0005 μg), 3; in test [4] (total dose .005 μg), 5; in test [4] (total dose .05 μg) it was 3; in test [4] (total dose .5 μg) it was 3. For the same compound, the “No. animals surviving when 100% controls are dead” value is reported as 0 in test [4] (total dose .000005 μg); 1 in test [4] (total dose .00005 μg); 2 in test [4] (total dose .0005 μg); 1 in test [4] (total dose .005 μg); 1 in test [4] (total dose .05 μg); 0 in test [4] (total dose .5 μg). For the same compound, the “No. animals surviving after 6 days” value is 2 and 1 in the test with Herpes virus [2] (mouse, in vivo, po); 0 in the test on Herpes virus [2] (oral, total dose .00005 μg); 3 in the test on Herpes virus [2] (oral, total dose .0005 μg). The “No. animals surviving when 17/20 controls are dead” value was 3 with Herpes virus [2] (oral, total dose .000005 μg); 3 with Herpes virus [2] (oral, total dose .00005 μg); 0 in the test with Herpes virus [2] (oral, total dose .0005 μg); 2 in the test with Herpes virus [2] (oral, total dose .005 μg); 1 with Herpes virus [2] (oral, total dose .05 μg).
